Test results taken from patent US9145424B2, “Treatment of amyotrophic lateral sclerosis” (Northwestern University, priority 2008, dated 2015).
In brackets after ≈: the same amount, converted by molar mass. Several values for one entry are separate records, joined by “and”; a condition that tells them apart may be missing. Equal entries are not always repeated. Where two headings read alike, the source gives them in different places.

Tests used:
[1] = system: PC12 cells that express mutant G93A SOD1; test: Mutant SOD1-induced cytotoxicity protection assay
Method: This idea was tested by examining the sensitivity of PC12 cells to SOD1 aggregates in the presence and absence of proteasome inhibitor MG132. PC12 cells expressing no SOD1, wild type SOD1, G85R SOD1 or G93A SOD1 were grown with or without MG132 (FIG. 1).
PC12 cells expressing G93A SOD1 were treated with 100 nM MG132 with or without co-treatment with geldanamycin or radicicol.

[2] = In vitro microsomal stability, human; format: in vitro ADME; details: human, human liver microsomes; read-out: human metabolic potential T1/2
Method: (§1) Metabolism (microsome, S9 fraction, CYP450): Liver Cytochrome P450 (CYP450) enzymes are the major route for xenobiotic metabolism and microsomal and hepatocyte stability is the best predictor of pharmacokinetic half-life. Cross-species comparisons of metabolism in liver microsomes can predict potential issues with liver toxicity in humans. Selected active compounds are tested in liver microsomes from efficacy species (mouse), toxicity species (rat, dog, monkey), and humans for metabolic stability.
(§2) CMB-087229 was sent for an evaluation of its in vitro ADME properties.
(§3) Two possible amines, secondary and tertiary AAP analogues, were initially screened in the protection assay (FIG. 30) and for in vitro microsomal stability (Table 1) and Caco-2 permeability (Table 2). […] The solubilities of 2 and 3 were good in aqueous media (≧150 μM), and no precipitation occurred at the highest concentration. The in vitro plasma half-life for both compounds was >60 min.

[3] = In vitro microsomal stability, mouse; format: in vitro ADME; details: mouse, mouse liver microsomes; read-out: mouse metabolic potential T1/2
Method: as §1, §2, §3

[4] = In vitro Caco-2 permeability; format: in vitro ADME; details: human, Caco-2
Method: General Permeability: High membrane permeability is required for effective GI absorption and optimal bioavailability. Passive permeability is typically assessed in the PAMPA artificial membrane assay (Kansy et al., J. Med. Chem. 2002, 45(8), 1712-1722). Cell-based permeability determinations using the Caco-2 cell assay are more resource intensive but more predictive of active transport or efflux in vivo (Artursson et al., Adv. Drug. Deliv. Rev. 2001, 46(1-3), 27-43). Caco-2 assays are performed as needed during SAR development.

[5] = In vitro plasma stability; format: in vitro ADME; details: plasma; read-out: plasma stability T1/2
Method: Plasma stability: Plasma stability of active compounds is assessed in efficacy species (mouse), toxicity species (rat, dog, monkey), and human cells.

Aqueous solubility = format: physicochemical
Method: Solubility: Because compounds are stored in DMSO, it is necessary to determine aqueous solubility of initial hit compounds and their analogs. High solubility in aqueous solution is necessary for high GI absorption, bioavailability, and for chemical formulation. Compounds should be soluble in aqueous solution at >10 μg/ml. Solubility of >50 μg/ml is preferred.

[6] = Metabolic half-life in rats; format: in vitro ADME; details: rat
Excerpt: as §2

[7] = Brain uptake procedure, LCMS of brain and plasma; format: in vivo, mice (Tg6799 colony with B6/SJL background); details: 1 mg/kg i.p.; for concentration at 10 min / Kp at 10 min: Tg6799 colony with B6/SJL background, mouse, intraperitoneal, 1 mg/kg; for Kp at 10 min: brain/plasma
Method: CMB-087229 Mice Brain and Plasma Data CMB-087229 (1 mg/kg) was administrated to mice (Tg6799 colony with B6/SJL background) by intraperitoneal injection in a 60% PBS and 40% dimethyl sulfoxide solution. At 10 minutes after compound administration the mice were sacrificed. Blood was harvested and plasma was transferred to flash freeze in liquid nitrogen after centrifugation. Mice were perfused. The brain was homogenized in 100% acetonitrile. CMB-003319 (0.5 μg, 1.73 nmol) was added as an internal standard. The homogenates were centrifuged at 12000×g for 12 min, and the supernatant was evaporated. The residue was reconstituted in 33.3% acetonitrile. Solid phase extraction followed by LCMS (API 300 liquid chromatography-tandem mass spectrometry system, Applied Biosystems, Foster City, Calif.; Agilent 1100 series HPLC system, Agilent Technologies, Wilmington, Del.) was used to quantify the amount of CMB-087229 in mouse brain. Solid-phase extraction cartridges (Sep-Pak C18, Water Associates, Milford, Mass.) were washed with 1 mL acetonitrile and equilibrated with 1 mL of water. The reconstituted supernatant was then loaded, washed with 1 mL×2 of 33.3% acetonitrile. CMB-087229 was then dried and submitted for LCMS.

G93A SOD1 ALS mice = test: Survival in the G93A SOD1 ALS mouse model; format: in vivo; details: 20 mg/kg
Method: The compounds identified were evaluated in the transgenic G93A ALS mouse model. ADME data was used to determine optimal route of administration. LD50 and maximally-tolerated dose were determined, and that information was used to design and execute pharmacokinetic studies to assess brain bioavailability, and to guide choice of dosing regimen (i.e., frequency, dose, route). […] This may include further dose optimization, phenotype assessment, comparison with compounds of established efficacy, and analysis of brain tissue in treated animals.
In the present study, G93A SOD1 mice and littermate controls were bred from existing colonies at the Bedford VA Medical Hospital. The male G93A SOD1 mice were mated with B6SJL females and the offspring were genotyped by PCR using tail DNA. […] Mice were housed in micro-isolator cages in complete barrier facilities. A 12 hour light-dark cycle was maintained and animals were given free access to food and water. Control and transgenic mice of the same age (±2 days) and from the same ‘f’ generation were selected from multiple litters to form experimental cohorts (n=20 per group). […]
Data sets are generated and analyzed for each clinical and neuropathological measure. […] Dose-dependent effects are assessed in each treatment group using multiple two-sided ANOVA tests. […]

in vivo = details: mouse

## O=c1cc(COc2cc(Cl)cc(Cl)c2)[nH][nH]1 [CMB-087229]
[1]
  potency (ED50): 0.074 µM
[2]
  half-life: 1.55 h
[3]
  half-life: 0.6 h
[4]
  Papp (A→B): 370 nm/s
[5]
  half-life: 0.283 h
Aqueous solubility
  aqueous solubility: 250 µM (≈ 64.8 µg/mL)
[6]
  half-life: ~2 h
[7]; 10 minutes, single mice
  Brain Extract concentration: 0.159 µg/mL and 0.187 µg/mL
  Brain concentration: 0.366 µg/g and 0.467 µg/g
  Brain/plasma Ratio July: 4.10 and 3.13
  Plasma concentration July: 0.0892 µg/mL and 0.149 µg/mL
[7]; brain extract, 10 minutes, single mice, read-out: Brain Extract concentration
  concentration at 10 min: 0.121 µg/mL
[7]; brain, 10 min July, read-out: Brain concentration (Mean ± S.E.)
  concentration at 10 min: 363 ± 105 ng/g
[7]; brain, 10 minutes, single mice, read-out: Brain concentration
  concentration at 10 min: 257 ng/g
[7]; 10 min July, read-out: Brain/Plasma Ratio (Mean ± S.E.)
  Kp at 10 min: 3.36 ± 0.66
[7]; 10 minutes, single mice, read-out: Brain/plasma Ratio July
  Kp at 10 min: 2.84
[7]; plasma, 10 min July, read-out: Plasma concentration (Mean ± S.E.)
  concentration at 10 min: 0.11 ± 0.0342 µg/mL
[7]; plasma, 10 minutes, single mice, read-out: Plasma concentration July
  concentration at 10 min: 0.0904 µg/mL
G93A SOD1 ALS mice
  extension in survival: 13.4%
In vivo
  Kp: ~0.55
In vivo; concentration in the brain
  concentration at 4 h: 194 µM
In vivo; plasma concentration
  concentration at 3 h: 342 µM
  concentration at 6 h: 347 µM
  concentration at 12 h: 248 µM
  concentration at 24 h: 1.68 µM
